Measurements as given in patent US12281095B2, “Pesticidally active diazine-amide compounds” (SYNGENTA CROP PROTECTION AG, priority 2019, dated 2025).

Experiments:
Format in all cases: in vivo
[1] = tested on: Chilo suppressalis (Striped Rice Stemborer); assay: Example B4: Chilo suppressalis (Striped Rice Stemborer), artificial diet; details: 144 h, application rate of 200 ppm, L2 larvae, 6 days after infestation, read-out: control in at least one of the three categories (mortality, anti-feedant or growth inhibition)
Experimental: Example B4: Chilo suppressalis (Striped Rice Stemborer)
24-well microtiter plates with artificial diet were treated with aqueous test solutions prepared from 10′000 ppm DMSO stock solutions by pipetting. After drying, the plates were infested with L2 larvae (6-8 per well). The samples were assessed for mortality, anti-feeding effect, and growth inhibition in comparison to untreated samples 6 days after infestation. Control of Chilo suppressalis by a test sample is given when at least one of the categories mortality, anti-feedant effect, and growth inhibition is higher than the untreated sample.

[2] = tested on: Diabrotica balteata (Corn Root Worm); assay: Example B1: Diabrotica balteata (Corn Root Worm), sprayed maize sprouts; details: 96 h, application rate of 200 ppm, L2 larvae, 4 days after infestation, read-out: control in at least one of the two categories (mortality or growth inhibition)
Experimental: Example B1: Diabrotica balteata (Corn Root Worm)
Maize sprouts placed onto an agar layer in 24-well microtiter plates were treated with aqueous test solutions prepared from 10′000 ppm DMSO stock solutions by spraying. After drying, the plates were infested with L2 larvae (6 to 10 per well). The samples were assessed for mortality and growth inhibition in comparison to untreated samples 4 days after infestation.

[3] = tested on: Spodoptera littoralis (Egyptian Cotton Leaf Worm); assay: Example B9: Spodoptera littoralis (Egyptian Cotton Leaf Worm), sprayed cotton leaf discs; details: foliar, 72 h, application rate of 200 ppm, L1 larvae, 3 days after infestation, read-out: control in at least one of the three categories (mortality, anti-feedant or growth inhibition)
[4] = tested on: Plutella xylostella (Diamond Back Moth); assay: Example B5: Plutella xylostella (Diamond Back Moth), artificial diet, 24-well; details: 192 h, application rate of 200 ppm, eggs, 8 days after infestation, read-out: control in at least one of the two categories (mortality or growth inhibition)
Experimental: Example B5: Plutella xylostella (Diamond Back Moth)
24-well microtiter plates with artificial diet were treated with aqueous test solutions prepared from 10′000 ppm DMSO stock solutions by pipetting. After drying, Plutella eggs were pipetted through a plastic stencil onto a gel blotting paper and the plate was closed with it. The samples were assessed for mortality and growth inhibition in comparison to untreated samples 8 days after infestation.

[5] = tested on: Plutella xylostella (Diamondback Moth); assay: Example B13: Plutella xylostella (Diamondback Moth), artificial diet, 96-well; details: 216 h, application rate of 500 ppm, eggs/L1 larvae, 9 days after infestation
Experimental: Example B13: Plutella xylostella (Diamondback Moth)
96-well microtiter plates containing artificial diet were treated with aqueous test solutions, prepared from 10′000 ppm DMSO stock solutions, by a liquid handling robot. After drying, eggs (˜30 per well) were infested onto a netted lid which was suspended above the diet. The eggs hatch and L1 larvae move down to the diet. The samples were assessed for mortality 9 days after infestation.

CC(NC(=O)c1cc(C2CC2)cc(C(F)(F)F)c1)c1nccnc1-c1ccc(OC(F)F)cn1 (centres unmarked) [P7, 3-cyclopropyl-N-[1-[3-[5-(difluoromethoxy)-2-pyridyl]pyrazin-2-yl]ethyl]-5-(trifluoromethyl)benzamide]
≥ 80%: percent control (mortality, anti-feedant effect or growth inhibition) at 200 ppm [1] | percent control (mortality or growth inhibition) at 200 ppm [2] | percent control (mortality, anti-feedant effect or growth inhibition) at 200 ppm [3] | percent control (mortality or growth inhibition) at 200 ppm [4]

CC(NC(=O)c1cc(C(F)(F)F)cc(C(C)(C)C#N)c1)c1nccnc1-c1ncc(OC(F)F)cn1 (centres unmarked) [P8, 3-(1-cyano-1-methyl-ethyl)-N-[1-[3-[5-(difluoromethoxy)pyrimidin-2-yl]pyrazin-2-yl]ethyl]-5-(trifluoromethyl)benzamide]
≥ 80%: percent control (mortality, anti-feedant effect or growth inhibition) at 200 ppm [1] | percent control (mortality or growth inhibition) at 200 ppm [2] | percent control (mortality, anti-feedant effect or growth inhibition) at 200 ppm [3] | percent control (mortality or growth inhibition) at 200 ppm [4]

CC(NC(=O)c1cc(C(F)(F)F)cc(C(C)(C)C#N)c1)c1nccnc1-c1ccc(OC(F)F)cn1 (centres unmarked) [P13, 3-(1-cyano-1-methyl-ethyl)-N-[1-[3-[5-(difluoromethoxy)-2-pyridyl]pyrazin-2-yl]ethyl]-5-(trifluoromethyl)benzamide]
≥ 80%: percent control (mortality, anti-feedant effect or growth inhibition) at 200 ppm [1] | percent control (mortality or growth inhibition) at 200 ppm [2] | percent control (mortality, anti-feedant effect or growth inhibition) at 200 ppm [3] | percent control (mortality or growth inhibition) at 200 ppm [4]

CC(NC(=O)c1cc(C(F)(F)F)nc(C2(C#N)CC2)c1)c1nccnc1-c1ccc(C#N)cn1 (centres unmarked) [P16, 2-(1-cyanocyclopropyl)-N-[1-[3-(5-cyano-2-pyridyl)pyrazin-2-yl]eth-yl]-6-(trifluoromethyl)pyridine-4-carboxamide]
≥ 80%: percent control (mortality, anti-feedant effect or growth inhibition) at 200 ppm [1] | percent control (mortality or growth inhibition) at 200 ppm [2] | percent control (mortality, anti-feedant effect or growth inhibition) at 200 ppm [3] | percent control (mortality or growth inhibition) at 200 ppm [4]

CC(NC(=O)c1cc(C(F)(F)F)cc(S(=O)(=O)C(F)(F)F)c1)c1nccnc1-c1ncc(OC(F)F)cn1 (centres unmarked) [P19, N-[1-[3-[5-(difluoromethoxy)pyrimidin-2-yl]pyrazin-2-yl]ethyl]-3-(trifluoromethyl)-5-(trifluoromethylsulfonyl)benzamide]
≥ 80%: percent control (mortality, anti-feedant effect or growth inhibition) at 200 ppm [1] | percent control (mortality or growth inhibition) at 200 ppm [2] | percent control (mortality, anti-feedant effect or growth inhibition) at 200 ppm [3] | mortality at 500 ppm [5] | percent control (mortality or growth inhibition) at 200 ppm [4]

CC(NC(=O)c1cc(C(F)(F)F)cc(S(=O)(=O)C(F)(F)F)c1)c1nccnc1-c1ccc(OCC(F)F)cn1 (centres unmarked) [P20, N-[1-[3-[5-(2,2-difluoroethoxy)-2-pyridyl]pyrazin-2-yl]ethyl]-3-(trifluoromethyl)-5-(trifluoromethylsulfonyl)benzamide]
≥ 80%: percent control (mortality, anti-feedant effect or growth inhibition) at 200 ppm [1] | mortality at 500 ppm [5]

CC(NC(=O)c1cc(C(F)(F)F)nc(C2(C#N)CC2)c1)c1nccnc1-c1ccc(OCC(F)(F)F)cn1 (centres unmarked) [P23, 2-(1-cyanocyclopropyl)-N-[1-[3-[5-(2,2,2-trifluoroethoxy)-2-pyridyl]pyrazin-2-yl]ethyl]-6-(trifluoromethyl)pyridine-4-carboxamide]
≥ 80%: percent control (mortality, anti-feedant effect or growth inhibition) at 200 ppm [1] | percent control (mortality or growth inhibition) at 200 ppm [2] | percent control (mortality, anti-feedant effect or growth inhibition) at 200 ppm [3] | mortality at 500 ppm [5] | percent control (mortality or growth inhibition) at 200 ppm [4]

CC(NC(=O)c1cc(C2CC2)cc(C(F)(F)F)c1)c1nccnc1-c1ccc(OCC(F)F)cn1 (centres unmarked) [P26, 3-cyclopropyl-N-[1-[3-[5-(2,2-difluoroethoxy)-2-pyridyl]pyrazin-2-yl]ethyl]-5-(trifluoromethyl)benzamide]
≥ 80%: percent control (mortality, anti-feedant effect or growth inhibition) at 200 ppm [1] | percent control (mortality, anti-feedant effect or growth inhibition) at 200 ppm [3] | mortality at 500 ppm [5] | percent control (mortality or growth inhibition) at 200 ppm [4]

CC(NC(=O)c1cc(C2CC2)cc(C(F)(F)F)c1)c1nccnc1-c1ccc(OCC(F)(F)F)cn1 (centres unmarked) [P27, 3-cyclopropyl-N-[1-[3-[5-(2,2,2-trifluoroethoxy)-2-pyridyl]pyrazin-2-yl]ethyl]-5-(trifluoromethyl)benzamide]
≥ 80%: percent control (mortality, anti-feedant effect or growth inhibition) at 200 ppm [1] | percent control (mortality or growth inhibition) at 200 ppm [2] | mortality at 500 ppm [5] | percent control (mortality or growth inhibition) at 200 ppm [4]

CC(NC(=O)c1cc(C(F)(F)F)cc(C(F)(F)C2CC2)c1)c1nccnc1-c1ccc(OCC(F)(F)F)cn1 (centres unmarked) [P31, 3-[cyclopropyl(difluoro)methyl]-N-[1-[3-[5-(2,2,2-trifluoroethoxy)-2-pyridyl]pyrazin-2-yl]ethyl]-5-(trifluoromethyl)benzamide]
≥ 80%: mortality at 500 ppm [5]

CC(NC(=O)c1cc(C(F)(F)F)cc(C(F)(F)C2CC2)c1)c1nccnc1-c1ncc(OCC(F)F)cn1 (centres unmarked) [P39, 3-[cyclopropyl(difluoro)methyl]-N-[1-[3-[5-(2,2-difluoroethoxy)pyrimidin-2-yl]pyrazin-2-yl]ethyl]-5-(trifluoromethyl)benzamide]
≥ 80%: percent control (mortality, anti-feedant effect or growth inhibition) at 200 ppm [1] | percent control (mortality, anti-feedant effect or growth inhibition) at 200 ppm [3] | mortality at 500 ppm [5] | percent control (mortality or growth inhibition) at 200 ppm [4]

C[C@H](NC(=O)c1cc(C(F)(F)F)cc(C(F)(F)C2CC2)c1)c1nccnc1-c1ccc(C#N)cn1 [P42, N-[(1S)-1-[3-(5-cyano-2-pyridyl)pyrazin-2-yl]ethyl]-3-[cyclopropyl(difluoro)methyl]-5-(trifluoromethyl)benzamide]
≥ 80%: percent control (mortality, anti-feedant effect or growth inhibition) at 200 ppm [1] | percent control (mortality or growth inhibition) at 200 ppm [2] | percent control (mortality, anti-feedant effect or growth inhibition) at 200 ppm [3] | percent control (mortality or growth inhibition) at 200 ppm [4]

C[C@@H](c1nccnc1-c1ccc(C#N)cn1)N(CC1CC1)C(=O)c1cc(C(F)(F)F)cc(C(F)(F)C2CC2)c1 [P43, N-[(1S)-1-[3-(5-cyano-2-pyridyl)pyrazin-2-yl]ethyl]-3-[cyclopropyl(difluoro)methyl]-N-(cyclopropylmethyl)-5-(trifluoromethyl)benzamide]
≥ 80%: percent control (mortality, anti-feedant effect or growth inhibition) at 200 ppm [1] | percent control (mortality or growth inhibition) at 200 ppm [2] | percent control (mortality, anti-feedant effect or growth inhibition) at 200 ppm [3] | percent control (mortality or growth inhibition) at 200 ppm [4]

COC1(c2cc(C(=O)NC(C)c3nccnc3-c3ccc(C#N)cn3)cc(C(F)(F)F)c2)CC1 (centres unmarked) [P46, N-[1-[3-(5-cyano-2-pyridyl)pyra-zin-2-yl]ethyl]-3-(1-methoxycyclopropyl)-5-(trifluoromethyl)benzamide]
≥ 80%: percent control (mortality, anti-feedant effect or growth inhibition) at 200 ppm [1] | percent control (mortality or growth inhibition) at 200 ppm [2] | percent control (mortality, anti-feedant effect or growth inhibition) at 200 ppm [3] | percent control (mortality or growth inhibition) at 200 ppm [4]
